Columns and labels:
TNFr = experiment: TNF-R transfectant, NF-kB reporter gene (secreted phosphatase); format: cell-based; further: test concentration or dose not given here
Source text: (§1) The secreted phosphatase sPase was used as reporter for its ability to process the luminiscent or colorimetric substrates from the culture based in the hydrolysis of substrates chemically similar to nitrophenol phosphate. Five generation of transfectants were developed as described: • 1. IL-4R. Chains of Type II IL-4-r, which is the common one within non-haematopoietic cells were transfected, as well as STAT6 which the key molecule in the nuclear signalling route by IL-4-r, and finally a reporter gene to measure the response to STAT6 was introduced. Endogenously, cells had Janus Associated Kinase 1 (JAK1) which was previously known to be associated with STAT6 via p62/aPKC. • 2. IL-6R. Chains of IL-6R were transfected and a reporter gene able to measure the response to STAT3 was introduced. As it is well known, STAT3 is a transductional molecule and a nuclear factor physiologically produced in the standard responses IL-6/IL-6R. • 3. TNF-R. In this case, a reporter gene able to measure the response to NF-kB was introduced, as this is the transductional molecule and the nuclear factor physiologically produced in response to TNF-alpha. […] LPS-Receptor complex represented by TLR4/MD2/CD14. Reporter genes with elements of response to NFkB were used as in the previous case, but the selectivity was achieved by the co-transfection of components of the LPS-R complex. The LPS is captured from the serum through the union to one plasma protein known as LBP, which transfers the LPS to the membrane protein CD14. The LBP inclusion accounts for an increase of 1000-fold the sensitivity versus media or cultures LBP-frees. The molecule CD14 is not an LPS-receptor but a module of the receptor complex which captures LBP, allowing the transference of LPS in the cellular surface to MD2. CD14 has not a cytoplasmic tail and it is not able to be a signal transducer but it substantially increases the sensitivity of the system. In a similar way, MD2 is not a signal transducer but the combination of CD14 and MD2 allows the increase of the sensitivity by 10000-fold. • 5. IL-1R. Reporter genes with elements of response to NFkB were used as in the previous case, but the selectivity was achieved by the expression of components belonging to the receptor complex IL-1R. IL-1R belongs to a receptors superfamily which uses TIR transduction domains (Toll-like IL-1R). It is known that the IL-1R route activates mitogen-activated protein kinases (MAPK) of JNK type which in turn generate nuclear factors transcriptionally active as AP-1. The reporter gene includes NFkB and AP-1 sites chained in order to simulate the physiological situation.

IL6r = experiment: IL-6R transfectant, STAT3 reporter gene (secreted phosphatase); format: cell-based; further: test concentration or dose not given here
Source text: as §1

IL4r = experiment: IL-4R transfectant, STAT6 reporter gene (secreted phosphatase); format: cell-based; further: test concentration or dose not given here
Source text: as §1

SMILES | melting point [°C] | Inhibition of TNFr (TNFr) | Inhibition of IL6r (IL6r) | Inhibition of IL4r (IL4r)
Cl.FC(F)(F)Oc1ccccc1CNCCCC=C(c1ccccc1)c1ccccc1 [Compound 10, (5,5-diphenyl-pent-4-enyl)-(2-trifluoromethoxybenzyl)amine hydrochloride] | 109 to 110.7 | Inhibition of TNFr up 30% | Inhibition of IL6r down 5% | Inhibition of IL4r total
C(CCNCc1cccs1)=C(c1ccccc1)c1ccccc1.Cl [Compound 13, (4,4-diphenyl-but-3-enyl)-thiophen-2-ylmethyl-amine hydrochloride] | 163 to 165.5 | Inhibition of TNFr total | Inhibition of IL6r total | Inhibition of IL4r total
Cc1nc2ccccc2n1CCCC=C(c1ccccc1)c1ccccc1 [Compound 27] |  | Inhibition of TNFr total | Inhibition of IL6r low-75% | Inhibition of IL4r total
C(CCCn1ccnc1)=C(c1ccccc1)c1ccccc1 [Compound 28, 1-(5,5-Diphenyl-pent-4-enyl)-1H-imidazole] |  | Inhibition of TNFr 25% | Inhibition of IL6r down-low (*) | Inhibition of IL4r 75%
Clc1nc(NCCCCC=C(c2ccccc2)c2ccccc2)c2nc[nH]c2n1 [Compound 29, (2-Chloro-9H-purin-6-yl)-(6,6-diphenyl-hex-5-enyl)-amine] | 205.7 to 207 |  |  | 

Second part, the compound after the results:

melting point [°C] | Inhibition of TNFr (TNFr) | Inhibition of IL6r (IL6r) | Inhibition of IL4r (IL4r) | SMILES
121.4 to 122.7 |  |  |  | Cl.FC(F)(F)c1ccc(CNCCCC=C(c2ccccc2)c2ccccc2)cc1
126 to 128 |  |  |  | Cl.FC(F)(F)Oc1ccc(CNCCC=C(c2ccccc2)c2ccccc2)cc1
109 to 110.5 |  |  |  | Cl.FC(F)(F)Oc1ccc(CNCCCCC=C(c2ccccc2)c2ccccc2)cc1
69.2 to 73.8 |  |  |  | COc1ccc(CNCCCC=C(c2ccccc2)c2ccccc2)cc1.Cl
108 to 109.7 |  |  |  | C(CCCNCc1ccsc1)=C(c1ccccc1)c1ccccc1.Cl
125 to 126.9 |  |  |  | C(CCCNCc1ccccn1)=C(c1ccccc1)c1ccccc1.Cl
102.4 to 104 |  |  |  | Cl.FC(F)(F)Oc1cccc(CNCCCC=C(c2ccccc2)c2ccccc2)c1
